Experiment: Hydrodynamic size and potential analysis
Assay type: physicochemical
Protocol: The hydrodynamic size distribution and electrical potential of nanomedicines including AuS-TA were evaluated using a Litesizer 500 (Anton Paar) according to the manufacturer's instructions. AuS and TA non-covalently attached to AuS were quantified by determining absorbance using UV-vis spectrophotometry (Biochrom). […] Therefore, the TA amount of Edu-MSCs-AuS-TA was measured based on the AuS-TA ratio of AuS and TA. The concentration of each solution was extrapolated using the linear standard curve for AuS and TA. The morphology, crystallinity, and EDS mapping of AuS-PEG and AuS-TA complexes were analyzed using TEM (F30, Tecnai, USA) and STEM (JEM-ARM200F, JEOL, Japan).

- hydrodynamic size: 77 nm
- surface charge: close to neutral
SMILES: C[C@]12C=CC(=O)C=C1CC[C@H]1[C@@H]3C[C@@H](O)[C@](O)(C(=O)CO)[C@@]3(C)C[C@H](O)[C@@]12F [TA, triamcinolone]
